Tests used:
[1] = target: Tau-tubulin kinase 1 (Homo sapiens) (UniProt Q5TCY1); assay: TTBK1(h) Eurofins kinase panel; details: Compound concentration 1.0 uM
[2] = target: Serine/threonine-protein kinase PAK 1 (Homo sapiens) (UniProt Q13153); assay: PAK1(h) Eurofins kinase panel; details: Compound concentration 1.0 uM
Daudi = assay: Daudi cell line Proliferation assay; type: functional, Homo sapiens; details: time 3 day
SNU-16 = assay: SNU-16 cell line Proliferation assay; type: functional, Homo sapiens; details: time 3 day
[3] = target: T1, Interleukin-1 receptor-associated kinase 4 (Homo sapiens) (UniProt Q9NWZ3); assay: IRAK4(h) Eurofins kinase panel; details: Compound concentration 1.0 uM
T1 sequence (whole entry): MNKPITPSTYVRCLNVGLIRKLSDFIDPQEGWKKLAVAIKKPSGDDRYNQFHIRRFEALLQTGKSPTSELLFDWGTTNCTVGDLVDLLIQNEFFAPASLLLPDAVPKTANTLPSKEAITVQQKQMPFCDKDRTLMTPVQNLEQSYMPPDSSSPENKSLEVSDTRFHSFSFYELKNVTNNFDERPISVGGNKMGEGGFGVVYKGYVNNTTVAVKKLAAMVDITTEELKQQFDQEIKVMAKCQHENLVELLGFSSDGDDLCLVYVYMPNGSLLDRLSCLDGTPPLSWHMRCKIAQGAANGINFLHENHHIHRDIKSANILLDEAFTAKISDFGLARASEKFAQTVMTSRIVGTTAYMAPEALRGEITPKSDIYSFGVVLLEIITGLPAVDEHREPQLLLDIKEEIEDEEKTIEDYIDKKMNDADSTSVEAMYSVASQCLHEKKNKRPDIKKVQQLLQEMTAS

[4] = target: T2, Serine/threonine-protein kinase Chk1 (Homo sapiens) (UniProt O14757); assay: CHK1(h) Eurofins kinase panel; details: Compound concentration 1.0 uM
T2 sequence (whole entry): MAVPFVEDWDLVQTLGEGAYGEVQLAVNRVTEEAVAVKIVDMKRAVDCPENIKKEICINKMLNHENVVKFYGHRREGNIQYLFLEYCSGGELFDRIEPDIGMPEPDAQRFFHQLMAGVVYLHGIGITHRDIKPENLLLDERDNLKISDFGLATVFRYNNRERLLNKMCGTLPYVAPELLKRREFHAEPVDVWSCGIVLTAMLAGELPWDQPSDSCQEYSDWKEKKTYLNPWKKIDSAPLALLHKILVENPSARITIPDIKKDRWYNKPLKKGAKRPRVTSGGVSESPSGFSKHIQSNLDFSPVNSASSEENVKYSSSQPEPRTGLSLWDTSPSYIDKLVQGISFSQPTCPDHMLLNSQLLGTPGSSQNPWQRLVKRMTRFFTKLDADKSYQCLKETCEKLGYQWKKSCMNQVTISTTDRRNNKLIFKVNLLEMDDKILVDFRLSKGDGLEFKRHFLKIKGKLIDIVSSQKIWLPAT

[5] = target: Ribosomal protein S6 kinase beta-1 (Homo sapiens) (UniProt P23443); assay: p70S6K(h) Eurofins kinase panel; details: Compound concentration 1.0 uM
Ribosomal protein S6 kinase beta-1 (Homo sapiens), sequence (P23443 whole entry, looked up): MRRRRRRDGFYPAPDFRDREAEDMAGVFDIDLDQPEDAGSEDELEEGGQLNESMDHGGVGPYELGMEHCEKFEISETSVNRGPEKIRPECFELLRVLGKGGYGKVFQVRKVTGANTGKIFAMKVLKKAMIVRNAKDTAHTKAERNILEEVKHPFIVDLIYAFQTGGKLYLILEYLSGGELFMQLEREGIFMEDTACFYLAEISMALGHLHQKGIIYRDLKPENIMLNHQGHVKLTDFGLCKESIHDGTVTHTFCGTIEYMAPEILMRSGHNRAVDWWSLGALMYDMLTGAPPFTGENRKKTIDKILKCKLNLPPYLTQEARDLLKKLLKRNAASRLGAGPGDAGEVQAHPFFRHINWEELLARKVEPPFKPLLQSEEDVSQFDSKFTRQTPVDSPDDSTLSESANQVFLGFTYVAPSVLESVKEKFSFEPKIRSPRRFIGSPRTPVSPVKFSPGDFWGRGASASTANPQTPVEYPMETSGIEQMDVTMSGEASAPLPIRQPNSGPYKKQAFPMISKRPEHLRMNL

[6] = target: Tyrosine-protein kinase Fes/Fps (Homo sapiens) (UniProt P07332); assay: Fes(h) Eurofins kinase panel; details: Compound concentration 1.0 uM
Tyrosine-protein kinase Fes/Fps (Homo sapiens), sequence (P07332 whole entry): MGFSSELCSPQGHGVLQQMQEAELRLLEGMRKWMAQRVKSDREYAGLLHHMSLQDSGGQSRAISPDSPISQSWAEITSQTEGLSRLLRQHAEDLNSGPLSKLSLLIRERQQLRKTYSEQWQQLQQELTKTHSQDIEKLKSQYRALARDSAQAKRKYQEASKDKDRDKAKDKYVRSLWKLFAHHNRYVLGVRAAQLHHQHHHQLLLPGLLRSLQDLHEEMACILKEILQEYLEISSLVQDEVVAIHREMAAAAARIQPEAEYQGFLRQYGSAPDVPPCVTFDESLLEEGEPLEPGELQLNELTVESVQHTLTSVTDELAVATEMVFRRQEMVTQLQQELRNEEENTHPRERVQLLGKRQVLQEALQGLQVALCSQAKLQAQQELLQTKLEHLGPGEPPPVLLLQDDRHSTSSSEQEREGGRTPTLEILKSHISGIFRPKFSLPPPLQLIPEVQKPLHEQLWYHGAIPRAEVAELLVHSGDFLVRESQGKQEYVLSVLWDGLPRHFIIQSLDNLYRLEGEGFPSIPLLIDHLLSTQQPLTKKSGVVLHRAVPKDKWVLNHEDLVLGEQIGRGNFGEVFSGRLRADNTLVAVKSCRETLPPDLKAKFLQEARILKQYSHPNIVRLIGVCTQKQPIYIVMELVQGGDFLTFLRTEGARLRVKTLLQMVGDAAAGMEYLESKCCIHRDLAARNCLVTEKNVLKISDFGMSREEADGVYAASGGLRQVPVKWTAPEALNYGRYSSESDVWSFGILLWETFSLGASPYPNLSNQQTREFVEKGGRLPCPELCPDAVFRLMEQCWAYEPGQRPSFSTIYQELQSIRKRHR

HeLa = assay: HeLa cell line Proliferation assay; type: functional, Homo sapiens; details: time 3 day
[7] = target: T3, Mitogen-activated protein kinase kinase kinase 2 (Homo sapiens) (UniProt Q9Y2U5); assay: MEKK2(h) Eurofins kinase panel; details: Compound concentration 1.0 uM
T3 sequence (whole entry): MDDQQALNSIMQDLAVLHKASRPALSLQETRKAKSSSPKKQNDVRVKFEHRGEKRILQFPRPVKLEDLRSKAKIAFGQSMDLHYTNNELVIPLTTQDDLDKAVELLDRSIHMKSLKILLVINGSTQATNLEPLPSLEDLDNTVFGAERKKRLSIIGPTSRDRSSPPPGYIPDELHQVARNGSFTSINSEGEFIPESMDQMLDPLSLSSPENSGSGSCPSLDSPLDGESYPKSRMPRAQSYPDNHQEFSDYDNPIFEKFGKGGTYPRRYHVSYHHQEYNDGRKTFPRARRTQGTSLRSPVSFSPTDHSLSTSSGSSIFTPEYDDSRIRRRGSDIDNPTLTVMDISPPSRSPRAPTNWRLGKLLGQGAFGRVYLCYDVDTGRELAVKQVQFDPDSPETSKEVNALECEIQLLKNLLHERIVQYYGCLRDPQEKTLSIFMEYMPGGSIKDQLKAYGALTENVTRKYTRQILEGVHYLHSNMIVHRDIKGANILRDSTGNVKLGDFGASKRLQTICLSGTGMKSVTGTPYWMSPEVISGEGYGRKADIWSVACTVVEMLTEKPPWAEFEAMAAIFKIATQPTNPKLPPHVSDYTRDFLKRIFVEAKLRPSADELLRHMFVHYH

[8] = target: T4, Serine/threonine-protein kinase BRSK1 (Homo sapiens) (UniProt Q8TDC3); assay: BrSK1(h) Eurofins kinase panel; details: Compound concentration 1.0 uM
T4 sequence (whole entry): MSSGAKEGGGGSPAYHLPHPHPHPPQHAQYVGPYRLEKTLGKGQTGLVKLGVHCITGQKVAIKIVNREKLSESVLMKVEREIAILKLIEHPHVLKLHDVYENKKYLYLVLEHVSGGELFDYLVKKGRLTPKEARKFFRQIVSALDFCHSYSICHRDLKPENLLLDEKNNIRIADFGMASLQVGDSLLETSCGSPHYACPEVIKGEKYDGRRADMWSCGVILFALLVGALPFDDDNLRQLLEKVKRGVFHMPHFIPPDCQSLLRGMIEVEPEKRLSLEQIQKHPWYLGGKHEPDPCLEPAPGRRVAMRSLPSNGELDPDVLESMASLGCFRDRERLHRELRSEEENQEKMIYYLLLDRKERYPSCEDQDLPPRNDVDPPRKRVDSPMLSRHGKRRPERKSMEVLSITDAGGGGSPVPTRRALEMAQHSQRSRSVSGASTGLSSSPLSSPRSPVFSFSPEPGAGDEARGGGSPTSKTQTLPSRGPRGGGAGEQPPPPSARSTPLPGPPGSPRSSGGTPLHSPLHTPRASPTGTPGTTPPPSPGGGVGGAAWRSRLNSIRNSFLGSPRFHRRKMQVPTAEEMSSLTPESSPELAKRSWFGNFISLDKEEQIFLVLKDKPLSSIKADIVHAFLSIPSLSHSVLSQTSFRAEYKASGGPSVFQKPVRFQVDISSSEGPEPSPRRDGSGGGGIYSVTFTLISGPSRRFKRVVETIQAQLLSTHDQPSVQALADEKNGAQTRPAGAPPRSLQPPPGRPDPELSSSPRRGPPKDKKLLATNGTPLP

[9] = target: Mast/stem cell growth factor receptor Kit (Homo sapiens) (UniProt P10721); assay: cKit(h) Eurofins kinase panel; details: Compound concentration 1.0 uM
Mast/stem cell growth factor receptor Kit (Homo sapiens), sequence (P10721 whole entry): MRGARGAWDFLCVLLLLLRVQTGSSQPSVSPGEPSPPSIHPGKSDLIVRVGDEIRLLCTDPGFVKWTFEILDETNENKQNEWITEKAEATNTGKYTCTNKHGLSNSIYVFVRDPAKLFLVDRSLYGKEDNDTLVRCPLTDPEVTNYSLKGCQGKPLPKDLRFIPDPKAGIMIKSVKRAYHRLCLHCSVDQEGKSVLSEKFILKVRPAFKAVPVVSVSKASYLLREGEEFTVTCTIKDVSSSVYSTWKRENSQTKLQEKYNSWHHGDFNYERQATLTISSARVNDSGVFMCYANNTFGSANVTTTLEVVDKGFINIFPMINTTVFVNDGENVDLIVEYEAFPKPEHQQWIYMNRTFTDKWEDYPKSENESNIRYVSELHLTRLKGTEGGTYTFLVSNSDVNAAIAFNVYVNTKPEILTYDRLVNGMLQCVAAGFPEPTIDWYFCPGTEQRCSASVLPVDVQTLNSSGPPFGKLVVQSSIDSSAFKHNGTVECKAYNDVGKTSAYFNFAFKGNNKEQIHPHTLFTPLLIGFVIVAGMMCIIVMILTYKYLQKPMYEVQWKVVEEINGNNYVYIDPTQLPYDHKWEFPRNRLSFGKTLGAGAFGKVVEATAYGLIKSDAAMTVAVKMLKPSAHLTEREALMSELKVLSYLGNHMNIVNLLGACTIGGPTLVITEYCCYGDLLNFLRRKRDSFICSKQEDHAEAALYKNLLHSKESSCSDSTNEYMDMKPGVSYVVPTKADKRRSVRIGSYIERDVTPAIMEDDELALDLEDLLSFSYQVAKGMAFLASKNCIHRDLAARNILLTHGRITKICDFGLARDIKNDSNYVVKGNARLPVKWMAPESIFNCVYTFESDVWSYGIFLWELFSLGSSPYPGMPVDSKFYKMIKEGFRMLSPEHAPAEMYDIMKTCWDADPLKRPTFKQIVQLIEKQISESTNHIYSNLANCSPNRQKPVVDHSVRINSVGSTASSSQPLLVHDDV

[10] = target: Epidermal growth factor receptor (Homo sapiens) (UniProt P00533); assay: EGFR(h) Eurofins kinase panel; details: Compound concentration 1.0 uM

Serine/threonine-protein kinase PAK 1 (Homo sapiens), sequence (Q13153 whole entry): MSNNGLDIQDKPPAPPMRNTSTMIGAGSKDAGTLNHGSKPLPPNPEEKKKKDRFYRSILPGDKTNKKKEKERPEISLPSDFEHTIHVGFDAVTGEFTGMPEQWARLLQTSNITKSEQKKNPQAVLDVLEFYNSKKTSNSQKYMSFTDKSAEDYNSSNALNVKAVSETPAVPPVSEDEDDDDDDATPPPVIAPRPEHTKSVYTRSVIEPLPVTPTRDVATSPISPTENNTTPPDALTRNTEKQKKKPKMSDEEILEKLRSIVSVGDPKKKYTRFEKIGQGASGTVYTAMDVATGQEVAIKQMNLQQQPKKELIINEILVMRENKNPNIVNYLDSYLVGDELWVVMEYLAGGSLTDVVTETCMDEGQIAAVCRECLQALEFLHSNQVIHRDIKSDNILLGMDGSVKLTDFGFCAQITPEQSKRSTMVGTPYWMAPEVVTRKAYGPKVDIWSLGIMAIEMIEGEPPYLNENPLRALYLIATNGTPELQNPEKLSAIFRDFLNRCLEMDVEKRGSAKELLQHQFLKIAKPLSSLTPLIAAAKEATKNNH
Tau-tubulin kinase 1 (Homo sapiens), sequence (Q5TCY1 whole entry): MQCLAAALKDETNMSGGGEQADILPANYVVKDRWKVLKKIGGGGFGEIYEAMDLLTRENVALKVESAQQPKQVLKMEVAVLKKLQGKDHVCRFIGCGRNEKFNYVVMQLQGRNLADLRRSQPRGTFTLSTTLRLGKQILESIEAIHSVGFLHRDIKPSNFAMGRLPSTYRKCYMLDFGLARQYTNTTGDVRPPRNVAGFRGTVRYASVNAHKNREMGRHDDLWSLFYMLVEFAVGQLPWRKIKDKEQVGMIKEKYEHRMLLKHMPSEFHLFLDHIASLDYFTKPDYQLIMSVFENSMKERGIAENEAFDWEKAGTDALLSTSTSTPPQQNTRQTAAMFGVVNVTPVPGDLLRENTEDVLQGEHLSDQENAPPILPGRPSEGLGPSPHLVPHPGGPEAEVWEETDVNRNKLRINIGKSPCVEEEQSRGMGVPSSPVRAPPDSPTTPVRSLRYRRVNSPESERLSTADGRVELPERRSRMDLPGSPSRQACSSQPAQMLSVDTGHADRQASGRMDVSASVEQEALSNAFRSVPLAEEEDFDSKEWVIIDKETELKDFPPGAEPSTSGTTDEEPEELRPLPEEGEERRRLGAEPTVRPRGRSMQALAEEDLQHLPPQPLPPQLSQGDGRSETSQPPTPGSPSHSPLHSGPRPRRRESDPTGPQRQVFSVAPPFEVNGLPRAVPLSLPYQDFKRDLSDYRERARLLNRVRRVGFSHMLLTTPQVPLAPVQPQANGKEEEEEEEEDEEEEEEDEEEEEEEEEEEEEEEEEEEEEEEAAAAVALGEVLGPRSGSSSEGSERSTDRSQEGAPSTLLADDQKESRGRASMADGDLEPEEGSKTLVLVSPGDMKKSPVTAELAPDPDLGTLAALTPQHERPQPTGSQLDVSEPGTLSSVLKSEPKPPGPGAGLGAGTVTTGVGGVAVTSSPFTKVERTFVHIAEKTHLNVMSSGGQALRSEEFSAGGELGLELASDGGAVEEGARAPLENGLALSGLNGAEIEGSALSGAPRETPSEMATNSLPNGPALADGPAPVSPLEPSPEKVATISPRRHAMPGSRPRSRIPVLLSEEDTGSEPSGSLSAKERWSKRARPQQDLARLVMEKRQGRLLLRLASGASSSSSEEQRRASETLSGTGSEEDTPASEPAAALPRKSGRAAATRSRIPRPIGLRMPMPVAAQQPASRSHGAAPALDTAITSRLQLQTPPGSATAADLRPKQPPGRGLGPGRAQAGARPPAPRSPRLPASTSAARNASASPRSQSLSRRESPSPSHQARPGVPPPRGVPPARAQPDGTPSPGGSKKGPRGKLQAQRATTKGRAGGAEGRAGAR

CCc1ccccc1C(=O)Nc1n[nH]c2c(C)c(F)c(C3C(C#N)=C(C)N(C)C(C)=C3C#N)cc12 [BAY-3827] was tested, and the % residual kinase activity [1] was 104%, the % residual kinase activity [2] was 94% and the “Cell Proliferation IC50” value (Daudi) was 22.9 µM. For the same molecule, the “Cell Proliferation IC50” value (SNU-16) was 12 µM, the % residual kinase activity [3] was 103% and the % residual kinase activity [4] was 112%. For the same molecule, the % residual kinase activity [5] was 76%, the % residual kinase activity [6] was 89% and the “Cell Proliferation IC50” value (HeLa) was 25.7 µM. The % residual kinase activity [7] was 103%, the % residual kinase activity [8] was 64% and the % residual kinase activity [9] was 101%. The % residual kinase activity [10] was 107%.

— ChEMBL document CHEMBL4507319 (2021)
